{"source": "patent US8802597B2", "about": "“Herbicidal pyrimidines” (E I du Pont de Nemours and Company, priority 2003, dated 2014)", "assay_in_all_cases": "Test C pre/postemergence", "format_in_all_cases": "in vivo", "key": {"[1]": {"tested_on": "cocklebur (Xanthium strumarium)", "settings": "for Cocklebur plant response rating: scale 0 to 100 (0 no effect, 100 complete control)", "outline": "(§1)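 Greenhouse pot test: seeds treated preemergence, or plants at 2–18 cm (1- to 4-leaf stage) treated postemergence, with compound in non-phytotoxic solvent plus surfactant. Visual rating versus untreated controls after 12–14 days, scale 0 (no effect) to 100 (complete control); dash means not tested.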"}, "[2]": {"tested_on": "morningglory (Ipomoea coccinea)", "settings": "for Morningglory plant response rating: scale 0 to 100 (0 no effect, 100 complete control)", "outline": "as §1"}, "[3]": {"tested_on": "common (oilseed) sunflower (Helianthus annuus)", "settings": "Preemergence", "outline": "as §1"}, "[4]": {"tested_on": "yellow nutsedge (Cyperus esculentus)", "settings": "for Nutsedge, Yellow plant response rating: scale 0 to 100 (0 no effect, 100 complete control)", "outline": "as §1"}, "[5]": {"tested_on": "giant foxtail (Setaria faberii)", "settings": "for Foxtail, Giant plant response rating: scale 0 to 100 (0 no effect, 100 complete control)", "outline": "as §1"}, "[6]": {"tested_on": "woolly cupgrass (Eriochloa villosa)", "settings": "for Cupgrass, Woolly plant response rating: scale 0 to 100 (0 no effect, 100 complete control)", "outline": "as §1"}, "[7]": {"tested_on": "velvetleaf (Abutilon theophrasti)", "settings": "for Velvetleaf plant response rating: scale 0 to 100 (0 no effect, 100 complete control)", "outline": "as §1"}, "kochia (Kochia scoparia)": {"tested_on": "kochia (Kochia scoparia)", "settings": "for Kochia plant response rating: scale 0 to 100 (0 no effect, 100 complete control)", "outline": "as §1"}, "[8]": {"tested_on": "crabgrass (Digitaria sanguinalis)", "settings": "for Crabgrass plant response rating: scale 0 to 100 (0 no effect, 100 complete control)", "outline": "as §1"}, "[9]": {"tested_on": "johnsongrass (Sorghum halepense)", "settings": "for Johnsongrass plant response rating: scale 0 to 100 (0 no effect, 100 complete control)", "outline": "as §1"}, "[10]": {"tested_on": "pigweed (Amaranthus retroflexus)", "settings": "for Pigweed plant response rating: scale 0 to 100 (0 no effect, 100 complete control)", "outline": "as §1"}, "[11]": {"tested_on": "Surinam grass (Brachiaria decumbens)", "settings": "for Surinam Grass plant response rating: scale 0 to 100 (0 no effect, 100 complete control)", "outline": "as §1"}, "[12]": {"settings": "Postemergence, 250 g ai/ha, scale 0 to 100"}, "[13]": {"settings": "Preemergence, 31 g ai/ha, scale 0 to 100, 0 no effect, 100 complete control"}, "[14]": {"settings": "Preemergence, 62 g ai/ha, scale 0 to 100, 0 no effect, 100 complete control"}, "[15]": {"settings": "Preemergence, 125 g ai/ha, scale 0 to 100"}, "[16]": {"settings": "Preemergence, 250 g ai/ha, scale 0 to 100"}}}
{"smiles": "CCCCOC(=O)c1nc(C2CC2)nc(N)c1Br", "note": "[Compound 16]", "values": [{"measurement": "Plant response rating (scale of 0 to 100), Cocklebur", "setting": "[1]; Postemergence, 31 g ai/ha", "result": 75}, {"measurement": "Cocklebur plant response rating", "setting": "[1]; Postemergence, 62 g ai/ha", "result": 95}, {"measurement": "Cocklebur plant response rating", "setting": "[1]; Postemergence, 125 g ai/ha", "result": 100}, {"measurement": "Plant response rating, Cocklebur", "setting": "[1]; [12]", "result": 100}, {"measurement": "Plant response rating, Cocklebur", "setting": "[1]; [13]", "result": 45}, {"measurement": "Plant response rating, Cocklebur", "setting": "[1]; [14]", "result": 95}, {"measurement": "Plant response rating, Cocklebur", "setting": "[1]; [15]", "result": 95}, {"measurement": "Plant response rating, Cocklebur", "setting": "[1]; [16]", "result": 100}, {"measurement": "Plant response rating (scale of 0 to 100), Morningglory", "setting": "[2]; Postemergence, 31 g ai/ha", "result": 85}, {"measurement": "Morningglory plant response rating", "setting": "[2]; Postemergence, 62 g ai/ha", "result": 95}, {"measurement": "Morningglory plant response rating", "setting": "[2]; Postemergence, 125 g ai/ha", "result": 100}, {"measurement": "Plant response rating, Morningglory", "setting": "[2]; [12]", "result": 100}, {"measurement": "Plant response rating, Morningglory", "setting": "[2]; [13]", "result": 65}, {"measurement": "Plant response rating, Morningglory", "setting": "[2]; [14]", "result": 95}, {"measurement": "Plant response rating, Morningglory", "setting": "[2]; [15]", "result": 100}, {"measurement": "Plant response rating, Morningglory", "setting": "[2]; [16]", "result": 100}, {"measurement": "Plant response rating, Sunflower", "setting": "[3]; 31 g ai/ha, scale 0 to 100, 0 no effect, 100 complete control", "result": 20}, {"measurement": "Plant response rating, Sunflower", "setting": "[3]; 62 g ai/ha, scale 0 to 100, 0 no effect, 100 complete control", "result": 85}, {"measurement": "Plant response rating, Sunflower", "setting": "[3]; 125 g ai/ha, scale 0 to 100", "result": 100}, {"measurement": "Plant response rating, Sunflower", "setting": "[3]; 250 g ai/ha, scale 0 to 100", "result": 100}, {"measurement": "Plant response rating (scale of 0 to 100), Nutsedge, Yellow", "setting": "[4]; Postemergence, 31 g ai/ha", "result": 0}, {"measurement": "Nutsedge, Yellow plant response rating", "setting": "[4]; Postemergence, 62 g ai/ha", "result": 0}, {"measurement": "Nutsedge, Yellow plant response rating", "setting": "[4]; Postemergence, 125 g ai/ha", "result": 0}, {"measurement": "Plant response rating, Nutsedge, Yellow", "setting": "[4]; [12]", "result": 0}, {"measurement": "Plant response rating, Nutsedge, Yellow", "setting": "[4]; [13]", "result": 0}, {"measurement": "Plant response rating, Nutsedge, Yellow", "setting": "[4]; [14]", "result": 0}, {"measurement": "Plant response rating, Nutsedge, Yellow", "setting": "[4]; [15]", "result": 0}, {"measurement": "Plant response rating, Nutsedge, Yellow", "setting": "[4]; [16]", "result": 0}, {"measurement": "Plant response rating (scale of 0 to 100), Foxtail, Giant", "setting": "[5]; Postemergence, 31 g ai/ha", "result": 0}, {"measurement": "Foxtail, Giant plant response rating", "setting": "[5]; Postemergence, 62 g ai/ha", "result": 20}, {"measurement": "Foxtail, Giant plant response rating", "setting": "[5]; Postemergence, 125 g ai/ha", "result": 55}, {"measurement": "Plant response rating, Foxtail, Giant", "setting": "[5]; [12]", "result": 65}, {"measurement": "Plant response rating, Foxtail, Giant", "setting": "[5]; [13]", "result": 0}, {"measurement": "Plant response rating, Foxtail, Giant", "setting": "[5]; [14]", "result": 0}, {"measurement": "Plant response rating, Foxtail, Giant", "setting": "[5]; [15]", "result": 0}, {"measurement": "Plant response rating, Foxtail, Giant", "setting": "[5]; [16]", "result": 75}, {"measurement": "Plant response rating (scale of 0 to 100), Cupgrass, Woolly", "setting": "[6]; Postemergence, 31 g ai/ha", "result": 0}, {"measurement": "Cupgrass, Woolly plant response rating", "setting": "[6]; Postemergence, 62 g ai/ha", "result": 0}, {"measurement": "Cupgrass, Woolly plant response rating", "setting": "[6]; Postemergence, 125 g ai/ha", "result": 0}, {"measurement": "Plant response rating, Cupgrass, Woolly", "setting": "[6]; [12]", "result": 65}, {"measurement": "Plant response rating, Cupgrass, Woolly", "setting": "[6]; [13]", "result": 0}, {"measurement": "Plant response rating, Cupgrass, Woolly", "setting": "[6]; [14]", "result": 0}, {"measurement": "Plant response rating, Cupgrass, Woolly", "setting": "[6]; [15]", "result": 15}, {"measurement": "Plant response rating, Cupgrass, Woolly", "setting": "[6]; [16]", "result": 65}, {"measurement": "Plant response rating (scale of 0 to 100), Velvetleaf", "setting": "[7]; Postemergence, 31 g ai/ha", "result": 55}, {"measurement": "Velvetleaf plant response rating", "setting": "[7]; Postemergence, 62 g ai/ha", "result": 60}, {"measurement": "Velvetleaf plant response rating", "setting": "[7]; Postemergence, 125 g ai/ha", "result": 65}, {"measurement": "Plant response rating, Velvetleaf", "setting": "[7]; [12]", "result": 90}, {"measurement": "Plant response rating, Velvetleaf", "setting": "[7]; [13]", "result": 25}, {"measurement": "Plant response rating, Velvetleaf", "setting": "[7]; [14]", "result": 90}, {"measurement": "Plant response rating, Velvetleaf", "setting": "[7]; [15]", "result": 95}, {"measurement": "Plant response rating, Velvetleaf", "setting": "[7]; [16]", "result": 100}, {"measurement": "Plant response rating (scale of 0 to 100), Kochia", "setting": "kochia (Kochia scoparia); Postemergence, 31 g ai/ha", "result": 95}, {"measurement": "Kochia plant response rating", "setting": "kochia (Kochia scoparia); Postemergence, 62 g ai/ha", "result": 100}, {"measurement": "Kochia plant response rating", "setting": "kochia (Kochia scoparia); Postemergence, 125 g ai/ha", "result": 100}, {"measurement": "Plant response rating, Kochia", "setting": "kochia (Kochia scoparia); [12]", "result": 100}, {"measurement": "Plant response rating, Kochia", "setting": "kochia (Kochia scoparia); [13]", "result": 90}, {"measurement": "Plant response rating, Kochia", "setting": "kochia (Kochia scoparia); [14]", "result": 95}, {"measurement": "Plant response rating, Kochia", "setting": "kochia (Kochia scoparia); [15]", "result": 100}, {"measurement": "Plant response rating, Kochia", "setting": "kochia (Kochia scoparia); [16]", "result": 100}, {"measurement": "Plant response rating (scale of 0 to 100), Crabgrass", "setting": "[8]; Postemergence, 31 g ai/ha", "result": 0}, {"measurement": "Crabgrass plant response rating", "setting": "[8]; Postemergence, 62 g ai/ha", "result": 15}, {"measurement": "Crabgrass plant response rating", "setting": "[8]; Postemergence, 125 g ai/ha", "result": 45}, {"measurement": "Plant response rating, Crabgrass", "setting": "[8]; [12]", "result": 75}, {"measurement": "Plant response rating, Crabgrass", "setting": "[8]; [13]", "result": 0}, {"measurement": "Plant response rating, Crabgrass", "setting": "[8]; [14]", "result": 0}, {"measurement": "Plant response rating, Crabgrass", "setting": "[8]; [15]", "result": 65}, {"measurement": "Plant response rating, Crabgrass", "setting": "[8]; [16]", "result": 95}, {"measurement": "Plant response rating (scale of 0 to 100), Johnsongrass", "setting": "[9]; Postemergence, 31 g ai/ha", "result": 0}, {"measurement": "Johnsongrass plant response rating", "setting": "[9]; Postemergence, 62 g ai/ha", "result": 0}, {"measurement": "Johnsongrass plant response rating", "setting": "[9]; Postemergence, 125 g ai/ha", "result": 60}, {"measurement": "Plant response rating, Johnsongrass", "setting": "[9]; [12]", "result": 70}, {"measurement": "Plant response rating, Johnsongrass", "setting": "[9]; [13]", "result": 0}, {"measurement": "Plant response rating, Johnsongrass", "setting": "[9]; [14]", "result": 40}, {"measurement": "Plant response rating, Johnsongrass", "setting": "[9]; [15]", "result": 65}, {"measurement": "Plant response rating, Johnsongrass", "setting": "[9]; [16]", "result": 80}, {"measurement": "Plant response rating (scale of 0 to 100), Pigweed", "setting": "[10]; Postemergence, 31 g ai/ha", "result": 85}, {"measurement": "Pigweed plant response rating", "setting": "[10]; Postemergence, 62 g ai/ha", "result": 90}, {"measurement": "Pigweed plant response rating", "setting": "[10]; Postemergence, 125 g ai/ha", "result": 95}, {"measurement": "Plant response rating, Pigweed", "setting": "[10]; [12]", "result": 95}, {"measurement": "Plant response rating, Pigweed", "setting": "[10]; [13]", "result": 85}, {"measurement": "Plant response rating, Pigweed", "setting": "[10]; [14]", "result": 95}, {"measurement": "Plant response rating, Pigweed", "setting": "[10]; [15]", "result": 100}, {"measurement": "Plant response rating, Pigweed", "setting": "[10]; [16]", "result": 100}, {"measurement": "Plant response rating (scale of 0 to 100), Surinam Grass", "setting": "[11]; Postemergence, 31 g ai/ha", "result": 0}, {"measurement": "Surinam Grass plant response rating", "setting": "[11]; Postemergence, 62 g ai/ha", "result": 0}, {"measurement": "Surinam Grass plant response rating", "setting": "[11]; Postemergence, 125 g ai/ha", "result": 25}, {"measurement": "Plant response rating, Surinam Grass", "setting": "[11]; [12]", "result": 55}, {"measurement": "Plant response rating, Surinam Grass", "setting": "[11]; [13]", "result": 0}, {"measurement": "Plant response rating, Surinam Grass", "setting": "[11]; [14]", "result": 0}, {"measurement": "Plant response rating, Surinam Grass", "setting": "[11]; [15]", "result": 15}, {"measurement": "Plant response rating, Surinam Grass", "setting": "[11]; [16]", "result": 80}]}
